What was measured:
[1] = mn = molality of the nth substance listed, in mol/kg; conditions: 303.15 K, 101 kPa, Liquid, Linear variable-path acoustic interferometer
[2] = cn = amount concentration of the nth substance listed, in mol/dm3; conditions: 101 kPa, Liquid; for viscosity: Capillary tube (Ostwald / Ubbelohde) method; for mass density: Pycnometric method
[3] = refractive index (Na D-line) (dimensionless); mn = molality of the nth substance listed, in mol/kg; conditions: 303.15 K, 101 kPa, Liquid, Standard Abbe refractometry
[4] = wn = mass fraction of the nth substance listed; conditions: 101 kPa, Liquid; for viscosity: Capillary tube (Ostwald / Ubbelohde) method; for speed of sound: Linear variable-path acoustic interferometer; for mass density: Pycnometric method
[5] = refractive index (Na D-line) (dimensionless); wn = mass fraction of the nth substance listed; conditions: 303.15 K, 101 kPa, Liquid, Standard Abbe refractometry
[6] = 101 kPa, Liquid; for viscosity: Capillary tube (Ostwald / Ubbelohde) method; for mass density: Pycnometric method
[7] = refractive index (Na D-line) (dimensionless); conditions: 303.15 K; 101.33 kPa; Liquid; Standard Abbe refractometry

CC(C)[C@@H]1CC[C@@H](C)C[C@H]1O [DL-menthol] + CC(C)O
Conditions	refractive index, [3]	speed of sound, [1] [m/s]
m1 = 0.0323	1.3741	1135.7
m1 = 0.0453	1.3744	1138.2
m1 = 0.0584	1.3747	1141.2
m1 = 0.0715	1.375	1144.4
m1 = 0.0978	1.3755	1151.1
m1 = 0.111	1.3757	1154.2

[2]
Conditions	mass density [kg/m3]	viscosity [mPa·s]
303.15 K, c1 = 0.025	777.6	1.757
303.15 K, c1 = 0.035	777.8	1.761
303.15 K, c1 = 0.045	778	1.766
303.15 K, c1 = 0.055	778.3	1.771
303.15 K, c1 = 0.075	778.8	1.781
303.15 K, c1 = 0.085	779.1	1.785
313.15 K, c1 = 0.0247	768.8	1.34
313.15 K, c1 = 0.0346	769	1.344
313.15 K, c1 = 0.0445	769.2	1.349
313.15 K, c1 = 0.0544	769.5	1.355
313.15 K, c1 = 0.0742	770	1.364
313.15 K, c1 = 0.084	770.3	1.368
323.15 K, c1 = 0.0243	756.4	1.012
323.15 K, c1 = 0.034	756.6	1.017
323.15 K, c1 = 0.0438	756.8	1.022
323.15 K, c1 = 0.0535	757.1	1.026
323.15 K, c1 = 0.073	757.7	1.034
323.15 K, c1 = 0.0827	758	1.039

COC(=O)c1ccccc1O [methyl 2-hydroxybenzoate] + CC(C)O
[4]
Conditions	mass density, 303.15 K [kg/m3]	mass density, 313.15 K [kg/m3]	mass density, 323.15 K [kg/m3]	speed of sound, 303.15 K [m/s]	viscosity, 303.15 K [mPa·s]	viscosity, 313.15 K [mPa·s]	viscosity, 323.15 K [mPa·s]
w1 = 0.05	790.9	782.8	770.3	1146.8	1.798	1.379	1.048
w1 = 0.1	805.3	794.3	785.1	1170.6	1.846	1.437	1.103
w1 = 0.15	822.4	812	799.3	1197.7	1.961	1.56	1.227

[5]
Conditions	refractive index
w1 = 0.05	1.3791
w1 = 0.1	1.3852
w1 = 0.15	1.3912

CC(C)O [propan-2-ol]
[6]
Conditions	mass density [kg/m3]	viscosity [mPa·s]
303.15 K	777.1	1.747
313.15 K	768.4	1.33
323.15 K	756	1.003

Conditions	speed of sound [m/s]
[6], 303.15 K, Linear variable-path acoustic interferometer	1130.6

Conditions	refractive index
[7]	1.3736

CC(C)O [propan-2-ol] + COC(=O)c1ccccc1O
[4], w2 = 0
Conditions	mass density [kg/m3]	speed of sound [m/s]	viscosity [mPa·s]
303.15 K	777.1	1130.6	1.747
313.15 K	768.4	–	1.33
323.15 K	756	–	1.003

Conditions	refractive index
[5], w2 = 0	1.3736
